In the METLIN SMRT retention time set (Domingo-Almenara et al. 2019):

Assay: gradient 5% acetonitrile 3 min, to 50% in 2 min, to 85% in 15 min, held 3 min, 100 µL/min
Conditions: column: Zorbax Extend-C18 2.1 x 50 mm; eluents: water / acetonitrile, 0.1% formic acid
Outline: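 The mobile phases were water and acetonitrile, each with 0.1% formic acid, pumped at 100 μL/min through a Zorbax Extend-C18 column (2.1 × 50 mm, 1.8 μm). Pure standards were injected as mixtures of ~100 molecules and detected by a quadrupole time-of-flight mass spectrometer in positive and negative ionization mode. Retention time came from computationally picked adduct peaks, each inspected by hand.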

SMILES | RP-LC retention time [s]
Cc1noc(-c2cc(=O)n(CC(=O)Nc3cc(F)cc(F)c3)c3ccccc23)n1 | 904
O=C(c1cnn2c1CCCC2)N1CCCC1 | 614
CC1Oc2ccc(-c3csc(NC(=O)c4ccc(Cl)cc4)n3)cc2N(C)C1=O (configuration not stated) | 1040
O=C(NCCCN1CCCCC1)C1=C2CCCN2c2ccc(F)cc2S1(=O)=O | 606
O=C(c1cc(-c2ccncc2)n[nH]1)N1CCN(C(=O)c2cccc3[nH]ccc23)CC1 | 571
CN(C)c1ccc(-c2noc(C3CC(=O)N(c4ccc(F)cc4)C3)n2)cc1 (configuration not stated) | 994
CCOc1ccc(N2C(=O)CN(C(C)c3ccccc3)[C@H]3CS(=O)(=O)C[C@H]32)cc1 (some centres not stated) | 863
COc1ccc(NC(=O)c2ccc(-c3ccc(-c4noc(C)n4)cc3C)cc2)cc1N1CCN(C)CC1 | 812
Cc1ccc(C)c(OCC(=O)Nc2nc(-c3ccc(Br)cc3)cs2)c1C | 1430
COc1ccc([C@@H]2CC(=O)c3c(O)cc(O[C@@H]4O[C@H](CO)[C@@H](O)[C@H](O)[C@H]4OC4O[C@@H](C)[C@H](O)[C@@H](O)[C@H]4O)cc3O2)cc1O (some centres not stated) | 652
O=C(NCCCN1CCOCC1)c1ccc2c(c1)N(C(=O)c1ccc(F)cc1)CC2 | 615
CCOC(=O)c1c(S(=O)(=O)NCCN2CCc3ccccc3C2)c(C)n(C)c1C | 675
Cc1cnc(C2CCC2)n1CC1CCN(C(=O)NC2CCCCC2)CC1 | 657
O=C(CC1CCCC1)NCCc1noc(C2CC2)n1 | 713
O=C(Cc1ccc2c(c1)OCO2)Nc1nc2c(s1)Cc1ccccc1-2 | 878
CCc1ccc(OCC(=O)Nc2nnc(SCc3nnc(-c4ccccc4)o3)s2)cc1 | 1010
COC[C@@H]1CN(Cc2ccc3cc[nH]c3c2)C[C@H]1c1nc(C)no1 | 631
Cc1ccc(-c2noc(-c3cccc(S(=O)(=O)Nc4ccccn4)c3)n2)cc1 | 935
O=C(CCc1conc1-c1ccc(F)cc1)N1CCN(c2ccc(Cl)cc2)CC1 | 1090
Cc1ccc(S(=O)(=O)N2C[C@@H]3C[C@H](NC(=O)c4cccnc4)[C@H]2C3)cc1C | 724
O=C1c2ccccc2C(=O)c2c(NCCc3ccc(O)cc3)ccc(NCCc3ccc(O)cc3)c21 | 1180
COc1ccc(S(=O)(=O)N2CCCC(C(=O)NC3CCCCCC3)C2)cc1C (configuration not stated) | 1040

SMILES | RP-LC retention time [s]
COc1ccc(Cl)cc1NC(=O)C1CCN(S(C)(=O)=O)c2ccccc2O1 (configuration not stated) | 1030
Cc1nn(CC(=O)Nc2ccccc2C(F)(F)F)c(C)c1[N+](=O)[O-] | 792
Cc1ccc(CNC(=O)N2CCC3(CC2)NC(=O)c2ccc(F)cc2N3C)cc1 | 761
CCC(C)NC(=O)c1cn(-c2cc(-c3nc(C(C)C)no3)ccn2)cn1 (configuration not stated) | 907
O=S(=O)(Cc1ccc(Cl)cc1)c1nc2ccccc2nc1N1CCOCC1 | 756
CCOC(=O)c1c(C)[nH]c(C(=O)N2CCC(CC(=O)NCc3ccc(F)cc3)CC2)c1C | 780
CCOc1ccc(-n2nnc(-c3nc(-c4cccc(OC)c4)cs3)c2N)cc1 | 1130
N#Cc1cccc(C(=O)NC2CCN(c3cc(-c4ccccc4)[nH]n3)C2)c1 (configuration not stated) | 691
COc1cccc(C(=O)NC2CCN(c3ccc(F)cc3)C2=O)c1 (configuration not stated) | 756
CCOC(=O)CSc1nnc(NC(=O)c2ccc(S(=O)(=O)N(C)C)cc2)s1 | 772
O=C(NCCc1ccco1)c1ccc2nc(CCc3ccccc3)oc2c1 | 930
Cc1cc(C(=O)Nc2nc(-c3ccccc3)cs2)ccc1[N+](=O)[O-] | 1080
Cc1cc(NC(=O)CSc2nc(-c3cccnc3)ccc2C#N)no1 | 626
CCOc1ccc(C(=O)NCCc2c[nH]c3ccc(C)cc23)cc1OCC | 910
Cc1ccc2nc(C(=O)NCc3ccc(F)cc3)cn2c1 | 645
Cc1ccc(NC(=O)CC2COc3ccccc3NC2=O)cc1F (configuration not stated) | 769
CCN1CCN(c2ccc(-c3nc(-c4ccccc4)no3)cn2)CC1 | 675
O=C(c1ccc(-n2cccn2)nc1)N1CCCCC1 | 732
CC(C)CC(=O)Nc1ccc2c(c1)nc(CN1CCCC1)n2C(C)C | 612
O=C(NC1CC1)c1c2c(nc3ccccc13)CCCC2 | 585
CCCCN(CCCC)C(=O)C1CCN(S(=O)(=O)c2ccc3c(c2)CCCC(=O)N3)CC1 | 905
Cn1c(=O)c(N2CCN(C(=O)c3cccs3)CC2)nc2cccnc21 | 793

SMILES | RP-LC retention time [s]
CCOC(=O)C1=C(CN2CCC(N3CCCCC3)CC2)NC(=O)NC1c1ccc(OC(C)C)cc1 (configuration not stated) | 605
Cc1sc(NC(=O)c2ccccc2)nc1-c1ccc2c(c1)NC(=O)CO2 | 857
COc1ccc2c(c1)C1(CCN(C(=O)c3cccc(F)c3)C1)C(=O)N2C (configuration not stated) | 782
CCC(=O)N1CCC2(CC1)c1nccn1-c1ccccc1CN2CC(C)C | 632
O=C(NCc1cccc(C(F)(F)F)c1)C1CCCN(c2cnc3nccnc3c2)C1 (configuration not stated) | 754
CCCN1C(=O)Cc2cc(C(=O)O)ccc21 | 643
CCn1nccc1C(=O)Nc1c(-c2cccc(F)c2)nc2sc(N3CCCCC3)nn12 | 964
CC(C)CCN1C(=O)CC[C@]2(C(=O)N3CCN(c4ccc(F)cc4)CC3)CCCC[C@@H]12 | 1010
Cn1nc(-c2nnc(-c3ccc(F)cc3)o2)c2c1CCN(S(=O)(=O)Cc1ccccc1)C2 | 999
Cc1ccc(CNc2ccc(-c3nc(-c4ccc(F)cc4)no3)cn2)cc1 | 1250
CC1CCC2(CC1)NC(=O)N(CC(=O)Nc1ccccc1Cl)C2=O (configuration not stated) | 858
COc1ccc2c(c1)C1CC(C)(O2)N(C)C(=O)C1S(=O)(=O)c1ccc(C)cc1 (configuration not stated) | 1020
O=C(CCc1c(-c2ccc(F)cc2)nc2ccccn12)NCc1cccc(F)c1 | 645
O=C(NCc1cccnc1)c1ccc(-c2ccc(N3CCSCC3)nc2)cc1 | 582
COc1ccc(-c2cn3c(CC(=O)N4CCN(c5ccccc5OC)CC4)csc3n2)cc1OC | 698
CCN1CCn2cc(S(=O)(=O)Nc3ccc(F)cc3F)cc2C1=O | 727
O=S(=O)(Cc1ccccc1F)N1CCCCC1c1nc(-c2ccccc2)n[nH]1 (configuration not stated) | 948
COc1ccc(N2CCN(c3cc(C(=O)O)c4cc(NC(=O)CC(C)C)ccc4n3)CC2)cc1 | 655
CCc1nc(-c2ccc(C(=O)N3CCN(C(=O)c4ccco4)CC3)cc2)cs1 | 767
Cc1cccc(-c2noc(CN3C(=O)C(C)Oc4ccccc43)n2)c1 (configuration not stated) | 1110
O=C(NC1CC1)c1ccc(OCC2CCN(C(=O)c3ccc(Cl)cc3)CC2)cc1 | 850
O=C(CSc1ncnc2c1cnn2-c1ccccc1)Nc1ccc(OC(F)(F)F)cc1 | 1160

SMILES | RP-LC retention time [s]
O=C1CCCCC(C(=O)N2CCCCC2)N1 (configuration not stated) | 641
O=C(CSc1nccn1-c1ccc([N+](=O)[O-])cc1)NC1CCCCC1 | 730
CCc1cc(C(=O)N2CCN(CC)CC2)nc2cc(-c3ccccn3)nn12 | 580
CCn1nc(C)c2ccnc(N3CCC(C(=O)N4CCN(c5ccc(Cl)cc5)CC4)CC3)c21 | 780
CCOc1cc(-c2ccccc2)nc2ccc(NC(=O)c3cccs3)cc12 | 754
CCCCN1CCCC1CNC(=O)c1cc(C#N)c2ccccc2c1OC (configuration not stated) | 781
O=C(Nc1ccsc1-c1nnc(C2CC2)o1)c1cccc(Br)c1 | 1390
O=C(CCn1nnc2cc(-c3noc(-c4ccc(Cl)cc4)n3)ccc21)N1CCOCC1 | 936
Cc1ccc(S(=O)(=O)N2CCC(c3nc(-c4ccccn4)no3)CC2)cc1 | 916
COc1ccc(OCc2nc(-c3ccc4c(c3)nc(C)c(=O)n4C3CCCC3)no2)cc1 | 1170
CN(CCCNC(=O)CCCn1c(=O)c2cccn2c2ccc(F)cc21)Cc1ccccc1 | 673
CC1CCCCN1c1ccn2c(=O)n(CC(=O)Nc3ccc(F)cc3)nc2n1 (configuration not stated) | 759
Cc1ccc2nc(-c3ccc(C)c(NC(=O)C(C)(C)C)c3)[nH]c2c1 | 680
Cc1ccc(Nc2nc(C)cc3nn(CC(=O)Nc4ccc(N(C)C)cc4)c(=O)n23)cc1 | 800
CSc1cccc(NC(=O)N2CCN(C3=CC4=NC(C)CN4C=N3)CC2)c1 (configuration not stated) | 638
Cc1nn(-c2cc(N(C)C)ncn2)c(C)c1CCC(=O)N1CCC(Cc2ccccc2)CC1 | 969
CCN(CC)CCNC(=O)COc1ccc(Cl)cc1 | 694
O=S(=O)(c1ccc(-c2noc(-c3ccc(F)cc3)n2)cc1)N1CCOCC1 | 1050
Cc1nnc(C2CCCCCN2S(=O)(=O)c2ccc(F)c(C)c2)o1 (configuration not stated) | 893
O=C1COc2cc(S(=O)(=O)N3CCCC3C(=O)NCc3ccc4c(c3)OCO4)c(Cl)cc2N1 (configuration not stated) | 725
CC1Cc2nc(SCC(=O)NCC3CCCO3)n(-c3ccc(F)cc3)c(=O)c2S1 (configuration not stated) | 728
